ChEMBL document CHEMBL2157977, “The antitumor agent doxorubicin binds to Fanconi anemia group F protein” (Bioorg Med Chem, 2012)
Calls of active or inactive are those of the source. The calls are words filed in the database; no cut-off is given here.

Key:
[1] = biological target: T1, Fanconi anemia group F protein (Homo sapiens) (UniProt Q9NPI8); test: Binding affinity to human thymus flag-tagged full-length FANCF expressed in HEK293T cells after 10 mins by pull-down assay; format: cell-based; settings: HEK-293T
T1 sequence (whole entry): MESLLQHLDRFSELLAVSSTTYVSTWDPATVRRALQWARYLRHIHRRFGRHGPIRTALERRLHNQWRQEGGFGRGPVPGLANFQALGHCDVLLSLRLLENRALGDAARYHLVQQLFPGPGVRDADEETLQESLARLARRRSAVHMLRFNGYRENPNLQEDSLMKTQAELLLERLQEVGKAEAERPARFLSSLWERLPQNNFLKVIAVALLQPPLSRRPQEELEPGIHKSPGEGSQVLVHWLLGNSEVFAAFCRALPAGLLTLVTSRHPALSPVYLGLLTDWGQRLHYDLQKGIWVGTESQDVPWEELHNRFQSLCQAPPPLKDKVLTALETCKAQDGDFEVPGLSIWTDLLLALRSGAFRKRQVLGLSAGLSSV

[2] = biological target: Fanconi anemia group D2 protein (Homo sapiens) (UniProt Q9BXW9); test: Inhibition of CDDP-induced FANCD2 monoubiquitination in human HeLa cells at 9 uM after 18 hrs by Western blot analysis; format: cell-based
Chain of Fanconi anemia group D2 protein (Homo sapiens) (Q9BXW9 whole entry): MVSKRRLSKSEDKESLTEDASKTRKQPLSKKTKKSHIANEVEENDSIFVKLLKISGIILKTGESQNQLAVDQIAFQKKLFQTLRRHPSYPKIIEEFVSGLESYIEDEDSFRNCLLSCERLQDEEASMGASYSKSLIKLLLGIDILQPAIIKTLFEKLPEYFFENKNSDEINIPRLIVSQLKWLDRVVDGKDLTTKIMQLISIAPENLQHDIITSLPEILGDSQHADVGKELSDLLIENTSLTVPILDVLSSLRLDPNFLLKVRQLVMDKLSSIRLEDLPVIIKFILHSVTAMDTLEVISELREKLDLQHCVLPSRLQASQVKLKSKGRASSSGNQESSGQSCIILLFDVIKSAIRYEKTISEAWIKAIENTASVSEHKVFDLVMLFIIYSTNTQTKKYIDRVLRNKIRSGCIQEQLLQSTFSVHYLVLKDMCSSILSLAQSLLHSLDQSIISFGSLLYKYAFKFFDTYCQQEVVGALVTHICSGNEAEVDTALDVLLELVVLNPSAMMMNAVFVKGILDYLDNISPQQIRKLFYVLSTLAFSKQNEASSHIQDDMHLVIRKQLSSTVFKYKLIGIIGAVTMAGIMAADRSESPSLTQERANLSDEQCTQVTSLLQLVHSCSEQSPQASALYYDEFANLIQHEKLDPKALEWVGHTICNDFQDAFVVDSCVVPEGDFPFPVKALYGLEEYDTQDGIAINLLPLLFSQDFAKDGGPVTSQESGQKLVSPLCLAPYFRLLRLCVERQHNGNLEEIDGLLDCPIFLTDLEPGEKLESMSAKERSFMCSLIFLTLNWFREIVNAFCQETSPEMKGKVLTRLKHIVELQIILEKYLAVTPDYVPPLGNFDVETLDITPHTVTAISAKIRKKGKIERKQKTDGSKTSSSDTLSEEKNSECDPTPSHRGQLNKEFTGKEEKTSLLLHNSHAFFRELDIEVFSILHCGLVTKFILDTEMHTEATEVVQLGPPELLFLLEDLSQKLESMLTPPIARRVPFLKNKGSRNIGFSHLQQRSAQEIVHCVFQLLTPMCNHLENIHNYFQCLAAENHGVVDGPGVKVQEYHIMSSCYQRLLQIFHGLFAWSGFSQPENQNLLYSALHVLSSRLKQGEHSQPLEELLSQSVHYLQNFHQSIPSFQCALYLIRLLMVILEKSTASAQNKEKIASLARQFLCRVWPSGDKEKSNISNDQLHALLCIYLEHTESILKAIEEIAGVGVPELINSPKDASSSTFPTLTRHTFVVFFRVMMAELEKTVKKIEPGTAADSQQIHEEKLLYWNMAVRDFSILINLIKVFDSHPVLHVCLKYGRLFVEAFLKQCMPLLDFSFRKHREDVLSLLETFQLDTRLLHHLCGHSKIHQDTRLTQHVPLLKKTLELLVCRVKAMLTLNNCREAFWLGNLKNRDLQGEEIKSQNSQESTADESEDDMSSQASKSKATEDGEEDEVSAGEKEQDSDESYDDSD

SMILES | Activity [1] | inhibition [2]
COc1cccc2c1C(=O)c1c(O)c3c(c(O)c1C2=O)C[C@@](O)(C(=O)CO)C[C@@H]3O[C@H]1C[C@H](NC(=O)CCCCCNC(=O)CCCC[C@@H]2SC[C@@H]3NC(=O)N[C@@H]32)[C@H](O)[C@H](C)O1 | Active | 
COc1cccc2c1C(=O)c1c(O)c3c(c(O)c1C2=O)C[C@@](O)(C(=O)CO)C[C@@H]3O[C@H]1C[C@H](N)[C@H](O)[C@H](C)O1 |  | Active
